Measured values: patent US8119630B2 (Arrow Therapeutics Limited, priority 2002, dated 2012)

Key:
[1] = tested on: RSV; assay: XTT assay, RSV-infected Hep-2 cells; type: cell-based, Respiratory Syncytial Virus (RSV); details: Table 2, Examples 75 to 82 and 125 to 184, Hep-2 cells infected with RSV, 6 days at 37° C.
Protocol: Examples 75 to 82 and 125 to 184 were tested according to the protocol described below.
(§1) The inner 60 wells of 96 well tissue culture plates were seeded with Hep-2 cells at 4×10^4 cells/well for compound activity and toxicity studies in 100 μl of medium and incubated at 37° C. overnight or until nearing confluency.
(§2) Cells were infected with 25 μl RSV previously titrated to give 80% cell kill. To each well 25 μM of test compound were added. The final DMSO concentration was 0.5%. Some 200 μl of sterile distilled water were added to the outer wells of the plate and incubated at 37° C. for 6 days. Some 0.25 μl/ml PMS were added to stock […] solution, final conc. 25 μM PMS. Then 25 μl warmed XTT/PMS solution were added to each well and incubated for 1 hour at 37° C.
Maximum OD450nm reading (uninfected, untreated control cells) corresponded to 100% inhibition. Minimum OD450nm readings (infected control cells) corresponded to 0% inhibition. Log 10 concentration was plotted against OD450nm and IC50 values were calculated from either reading 50% value from graph or using regression analysis.

[2] = tested on: Hep-2 cells; assay: Toxicity studies (XTT), Hep-2 cells; type: cell-based; set-up: TC50 (6d): unit not given beside the values; details: for TC50 (2d): Table 2, Examples 75 to 82 and 125 to 184, 2d; for TC50 (6d): Table 2, Examples 75 to 82 and 125 to 184, 6d
Protocol: as §1
as §2, with “Some 200 μl of sterile distilled water were added to the outer wells of the plate and incubated at 37° C. for 6 days.” left out

[3] = human respiratory syncytial virus, 144 h

For `O=C(NC1N=C(c2ccccc2)c2ccc(Cl)cc2NC1=O)C1CCCCC1` (centres unmarked) [Example 168, Cyclohexanecarboxylic acid (8-chloro-2-oxo-5-phenyl-2,3-dihydro-1H-benzo[e][1,4]diazepin-3-yl)-amide], the IC50 [1, 3] was 5 µM, the TC50 (2d) [2] was > 100 µM and the “TC50 (6d)” value ([2]; in µM) was >100.
For `O=C(NC1N=C(c2ccccc2)c2ccccc2NC1=O)c1ccccn1` (centres unmarked) [Example 172, Pyridine-2-carboxylic-acid (2-oxo-5-phenyl-2,3-dihydro-1H-benzo[e][1,4]diazepin-3-yl)-amide], the IC50 [1, 3] was 6.4 µM and the “TC50 (6d)” value ([2]; in µM) was 137.8.
With `O=C(N[C@H]1N=C(c2ccccc2)c2ccccc2NC1=O)c1ccccc1O` [Example 80b, (S)-2-Hydroxy-N-(2-oxo-5-phenyl-2,3-dihydro-1H-benzo[e][1,4]diazepin-3-yl)-benzamide] the IC50 [1, 3] was 2 µM and the “TC50 (6d)” value ([2]; in µM) was >50.
With `CSc1ccccc1C(=O)NC1N=C(c2ccccc2)c2ccccc2NC1=O` (centres unmarked) [Example 142, 2-Methylsulfanyl-N-(2-oxo-5-phenyl-2,3-dihydro-1H-benzo[e][1,4]diazepin-3-yl)-benzamide] the IC50 [1, 3] was 9.4 µM and the “TC50 (6d)” value ([2]; in µM) was >50.
For `O=C(N[C@H]1N=C(c2ccccc2)c2ccccc2NC1=O)c1cccc2cc[nH]c12` [Example 81b], the IC50 [1] was 1.2 µM and the “TC50 (6d)” value ([2]; in µM) was 35.6.
With `O=C(NC1N=C(c2ccccc2)c2ccccc2NC1=O)c1c(F)cccc1F` (centres unmarked) [Example 136, 2,6-Difluoro-N (2-oxo-5-phenyl-2,3-dihydro-1H-benzo[e][1,4]diazepin-3-yl)-benzamide] the IC50 [1] was 8.7 µM and the “TC50 (6d)” value ([2]; in µM) was >50.
For `COc1cc2ccccc2cc1C(=O)NC1N=C(c2ccccc2)c2ccccc2NC1=O` (centres unmarked) [Example 82a, 3-Methoxy-naphthalene-2-carboxylic acid (2-oxo-5-phenyl-2,3-dihydro-1H-benzo[e][1,4]diazepin-3-yl)-amide], the IC50 [1, 3] was 6.7 µM and the “TC50 (6d)” value ([2]; in µM) was >50.
With `CC(C)(C)OC(=O)NC1N=C(c2ccccc2)c2ccccc2NC1=O` (centres unmarked) [Example 178, (2-Oxo-5-phenyl-2,3-dihydro-1H-benzo[e][1,4]diazepin-3-yl)carbamic acid tert-butyl ester] the IC50 [1, 3] was 4.3 µM and the “TC50 (6d)” value ([2]; in µM) was >50.
In the case of `COc1ccc(OC)c(C(=O)NC2N=C(c3ccccc3)c3ccccc3NC2=O)c1` (centres unmarked) [Example 126, 2,5-Dimethoxy-N-(2-oxo-5-phenyl-2,3-dihydro-1H-benzo[e][1,4]diazepin-3-yl)-benzamide], the IC50 [1, 3] is reported as 5.4 µM and the “TC50 (6d)” value ([2]; in µM) is reported as >50.
With `O=C(Nc1cccc(F)c1)NC1N=C(c2ccccc2)c2ccccc2NC1=O` (centres unmarked) [Example 128, 1-(3-Fluoro-phenyl)-3-(2-oxo-5-phenyl-2,3-dihydro-1H-benzo[e][1,4]diazepin-3-yl)-urea] the IC50 [1, 3] was 6.1 µM and the “TC50 (6d)” value ([2]; in µM) was >50.
For `COc1cc(SC)ccc1C(=O)NC1N=C(c2ccccc2)c2ccccc2NC1=O` (centres unmarked) [Example 132, 2-Methoxy-4-methylsulfanyl-N-(2-oxo-5-phenyl-2,3-dihydro-1H-1-benzo[e][1,4]diazepin-3-yl)-benzamide], the IC50 [1] was 6.3 µM and the “TC50 (6d)” value ([2]; in µM) was >50.
“Thiophene-2-carboxylic acid [5-(3-methoxy-phenyl)-2-oxo-5-phenyl-2,3-dihydro-1H-benzo[e][1,4]diazepin-3-yl]-amide [Example 164]” was tested, and the IC50 [1] was 4 µM, the TC50 (2d) [2] was 100 µM and the “TC50 (6d)” value ([2]; in µM) was 100.
With `O=C(Nc1cccc(C(F)(F)F)c1)NC1N=C(c2ccccc2)c2ccccc2NC1=O` (centres unmarked) [Example 130, 1-(2-Oxo-5-phenyl-2,3-dihydro-1H-benzo[e][1,4]diazepin-3-yl)-3-(3-trifluoromethyl-phenyl)-urea] the IC50 [1, 3] was 9.7 µM and the “TC50 (6d)” value ([2]; in µM) was 39.5.
With `CCOc1ccc2ccccc2c1C(=O)NC1N=C(c2ccccc2)c2ccccc2NC1=O` (centres unmarked) [Example 175, 2-Ethoxy-naphthalene-1-carboxylic acid (2-oxo-5-phenyl-2,3-dihydro-1H-benzo[e][1,4]diazepin-3-yl)-amide] the IC50 [1, 3] was 8.2 µM and the “TC50 (6d)” value ([2]; in µM) was >50.
With “Piperidine-1-carboxylic acid [5-(3-methoxy-phenyl)-2-oxo-5-phenyl-2,3-dihydro-1H-benzo[e][1,4]diazepin-3-yl]-amide [Example 166]” the IC50 [1] was 5 µM, the TC50 (2d) [2] was > 100 µM and the “TC50 (6d)” value ([2]; in µM) was >100.
`O=C1Nc2ccc(Cl)cc2C(c2ccccc2)=NC1NC(=O)N1CCCCC1` (centres unmarked) [Example 153, Piperidine-1-carboxylic acid (7-chloro-2-oxo-5-phenyl-2,3-dihydro-1H-benzo[p][1,4]diazepin-3-yl)-amide] was tested, and the IC50 [1] was 5 µM, the TC50 (2d) [2] was > 100 µM and the “TC50 (6d)” value ([2]; in µM) was >100.
For `CS(=O)(=O)c1ccc(C(=O)NC2N=C(c3ccccc3)c3ccccc3NC2=O)cc1` (centres unmarked) [Example 133, 4-Methanesulfonyl-N-(2-oxo-5-phenyl-2,3-dihydro-1H-benzo[e][1,4]diazepin-3-yl)-benzamide], the IC50 [1, 3] was 6.2 µM and the “TC50 (6d)” value ([2]; in µM) was 77.2.
For `COc1cccc(C2=NC(NC(=O)C(C)C)C(=O)Nc3ccccc32)c1` (centres unmarked) [Example 163], the IC50 [1] was 5 µM, the “TC50 (2d)” value [2] was >100 and the “TC50 (6d)” value [2] was >100.
